Data from US7169568B2, “Method for screening molecules that exert a neurotrophic effect through activation of neurotrophin receptors” (New York University, priority 2000, dated 2007).
Where no end group is shown, it is not given here.

System: TrkA receptors
Test: TrkA receptor phosphorylation in primary E18 basal forebrain neurons (immunoprecipitation, anti-phosphotyrosine Western blot)
Format: cell-based, rat
Details: 10 nM, 2 hours
Protocol: Primary cultures of E18 basal forebrain neurons were prepared as described in the Materials and Methods section of Example 2 and treated with PACAP38 (10 nM) or NGF (10 ng/ml) for various times. Activation of TrkA receptors was assessed by immunoprecipitation and Western blotting with anti-phosphotyrosine antibody.
Immunoprecipitated and Immunoblotting. PC12 (615) cells were maintained in DMEM containing 10% FBS supplemented with 100 units/ml penicillin, 100 μg/ml streptomycin, and 2 mM glutamine plus 200 μg/ml G418. Cells were placed in serum free medium overnight before experiments. Cell lysates from PC12(615) cells, or basal forebrain cells were incubated in lysis buffer (1% Nonidet P-40) for 4 hrs to overnight at 4° C. with anti-pan-Trk polyclonal antibody followed by incubation with protein A-Sepharose beads. Equivalent amounts of protein were analyzed for each condition. The beads were washed five times with lysis buffer, and the immune complexes were boiled in SDS-sample buffer and loaded on SDS-PAGE gels for immunoblot analysis. The immunoreactive protein bands were detected by enhanced chemiluminescence (Amersham Pharmacia).
Basal Forebrain Cell Cultures. […] Cells were counted and plated on culture wells coated with 0.01 mg/ml poly-D-lysine overnight. […]

With “PACAP27: 27 amino acid form of PACAP (HSDGIFTDSYSRYRKQMAVKKYLAAVL; ends and bridges not checked; UniProt P18509 132-158, looked up, fragment)” the “Phosphorylation of TrkA receptors” value was “gave rise to phosphorylated TrkA receptors”.
